From US20220280594A1, “APPLICATION OF POLYPEPTIDE OR DERIVATIVE THEREOF” (CHENGDU HUITAI BIOMEDICINE CO., LTD., priority 2019, published 2022)
Ends that are not written are not given here. PEG = not defined here

Key:
Assay type in all cases: cell-based
[1] = system: human lung cancer cells (95D); experiment: scratch assay, migration of 95D cells; conditions: 10 μM, 48 hours, control group 55.3 ± 3.19
Procedure: (§1) In the scratch assay, the cell migration rate was negatively correlated with the inhibitory effect of the drug component on tumor cell migration ability. The cell migration inhibition experiment was described as follows: tumor cells were cultured in vitro, cells in logarithmic growth phase were collected and seeded evenly in a 24-well plate at a density of 1-2×10^5 cells/well; the cells were cultured in a cell incubator until a monolayer was formed; a scratch tool was used to make a “-” (straight) scratch on the monolayer of cells; the cells were washed 1-3 times with PBS, and a medium (with 2% fetal bovine serum) containing specific test components was added to the culture. Experimental grouping: PBS control group; polypeptide or derivative thereof treatment group (N1-N54), 10 μM. Three independent parallel wells were set up in each group, and the cells were cultured continuously in a cell incubator for 48 hours. […] At least 3 representative images for each well were taken. ImageJ software was used to count the migration distance of the cells, and the cell migration rate was calculated as: cell migration rate (%)=(width of original scratch−width of current scratch)/width of original scratch×100.
This example was a scratch assay to evaluate the inhibitory effect of the polypeptide or derivative thereof (N1-N54) on the migration ability of human lung cancer cells (95D). The experimental method was as described in Example 2.

[2] = system: human lung squamous carcinoma cells (NCI-H226); experiment: scratch assay, migration of NCI-H226 cells; conditions: NCI-H226, 10 μM, 48 hours; control group 65.31 ± 3.19
Procedure: as §1
This example was a scratch assay to evaluate the inhibitory effect of the polypeptide or derivative thereof (N1-N54) on the migration ability of human lung squamous carcinoma cells (NCI-H226). The experimental method was as described in Example 2.

[3] = system: human pancreatic cancer cells (PANC-1); experiment: scratch assay, migration of PANC-1 cells; conditions: PANC-1, 10 μM, 48 hours; control group 66.65 ± 3.37
Procedure: as §1
This example was a scratch assay to evaluate the inhibitory effect of the polypeptide or derivative thereof (N1-N54) on the migration ability of human pancreatic cancer cells (PANC-1). The experimental method was as described in Example 2.

[4] = system: human pancreatic cancer cells (PANC-1); experiment: transwell invasion assay, PANC-1 cells; conditions: PANC-1 transwell invasion, 10 μM, 24 hours; control group 727 ± 68
From the text: (§2) The Transwell chamber system was used in the transwell cell invasion experiment. The chamber has an upper layer and a lower layer, which are separated by an artificial semipermeable membrane in the middle. The upper surface of the semipermeable membrane is coated with a layer of artificial matrigel to simulate extracellular matrix. Cells that have invaded through the matrigel and semi-permeable membrane will attach to the lower surface of the semi-permeable membrane. The invasion ability is evaluated by counting the number of cells on the lower surface of the semi-permeable membrane. The number of cells that have invaded is negatively correlated with the inhibitory effect of the drug on the invasion ability of the tumor cells. Transwell invasion assay was performed as follows: tumor cells were cultured in vitro, cells in logarithmic growth phase were collected, and cell suspension was prepared with fresh serum-free medium at a density of 2-3×10^5 cells/mL. Cells were inoculated, 100 μL/well cell suspension (serum-free medium) in the upper chamber and 600 μL/well complete culture medium in the lower chamber. After incubated in 37° C., 5% CO2 incubator for 4-5 hours, serum-free medium (100 μL/well) was added to the control group, and serum-free medium containing polypeptide or derivative thereof (N1-N54) was added to the upper chamber of the treatment group (100 μL/well), the final concentration of the peptide or derivative thereof in the upper chamber was 10 μM. The cells were incubated continuously for 24 hours, and then fixed with methanol and stained with crystal violet. Images were taken under a microscope and the number of invaded cells was counted with ImageJ.
This example was the transwell cell invasion experiment to evaluate the inhibitory effect of the polypeptide or derivative thereof (N1-N54) on the invasion ability of human pancreatic cancer cells (PANC-1). The experimental method was as described in Example 4.

[5] = system: human liver adenocarcinoma cells (SK-HEP-1); experiment: transwell migration assay, SK-HEP-1 cells; conditions: SK-HEP-1 transwell migration, 10 μM, 24 hours; control group 1 782 ± 108, control group 2 768 ± 86
Procedure: as §2, with “migration” for “invasion”, “middle.” for “middle. The upper surface of the semipermeable membrane is coated with a layer of artificial matrigel to simulate extracellular matrix.”, “migrated” for “invaded”, “the” for “the matrigel and”
This example was a transwell cell migration experiment to evaluate the inhibitory effect of the polypeptide or derivative thereof (N1-N54) on the migration ability of human liver adenocarcinoma cells (SK-HEP-1). The experimental method was as described in Example 3.

[6] = system: human liver adenocarcinoma cells (SK-HEP-1); experiment: transwell invasion assay, SK-HEP-1 cells; conditions: SK-HEP-1 transwell invasion, 10 μM, 24 hours; control group 767 ± 91
From the text: as §2
This example was a transwell cell invasion experiment to evaluate the inhibitory effect of the polypeptide or derivative thereof (N1-N54) on the invasion ability of human liver adenocarcinoma cells (SK-HEP-1). The experimental method was as described in Example 4.

[7] = system: human oral epidermoid carcinoma KB cells; experiment: scratch assay, migration of KB cells; conditions: 10 μM, 48 hours, control group 54.03 ± 4.21
Procedure: as §1
This example was a scratch assay to evaluate the inhibitory effect of the polypeptide or derivative thereof (N1-N54) on the migration ability of human oral epidermoid carcinoma cells (KB). The experimental method was as described in Example 2.

[8] = system: human thyroid cancer cells (FRO); experiment: scratch assay, migration of FRO cells; conditions: 10 μM, 48 hours, control group 60.34 ± 8.32
Procedure: as §1
This example was a scratch assay to evaluate the inhibitory effect of the polypeptide or derivative thereof (N1-N54) on the migration ability of human thyroid cancer cells (FRO). The experimental method was as described in Example 2.

Substance	Migration rate (%) (mean ± SD, P) [1]	Migration rate (%) (mean ± SD, P) [2]	Migration rate (%) (mean ± SD, P) [3]	Number of cells (mean ± SD, P), invaded cells [4]	Number of cells (mean ± SD, P), migrated cells [5]	Number of cells (mean ± SD, P), invaded cells [6]	Migration rate (%) (mean ± SD, P) [7]	Migration rate (%) (mean ± SD, P) [8]
N8: SEQ ID NO: 1 with deletion of positions 15-18 and positions 3, 4 and 11 (YRFLAKENTQD)	35.13 ± 4.45,** %	20.29 ± 4.29,*** %	35.11 ± 5.96,** %	65 ± 16,****	139 ± 13,****	277 ± 38,****	11.55 ± 1.62,*** %	7.28 ± 2.89,*** %
N28: SEQ ID NO: 1 with deletion of positions 1-2 and 18 and PEG modification at the amino terminal ({PEG}-VRFLAKENVTQDAED; reading uncertain)	28.08 ± 3.38,*** %	18.08 ± 7.38,*** %	32.25 ± 5.40,** %	247 ± 15,****	51 ± 25,****	214 ± 31,****	11.24 ± 3.52,*** %	8.77 ± 2.85,*** %
N7: SEQ ID NO: 1 with addition of one amino acid at the carboxyl terminal and substitution A15R (YRVRFLAKENVTQDREDNC)	35.72 ± 3.68,** %	18.83 ± 4.53,*** %	37.07 ± 7.83,** %	70 ± 17,****	127 ± 16,****	463 ± 52,**	11.11 ± 3.86,*** %	5.73 ± 2.04,*** %
N47: SEQ ID NO: 1 with N18R, deletion of positions 1-2, one amino acid added and PEG at the carboxyl terminal (VRFLAKENVTQDAEDRC-{PEG}; reading uncertain)	23.86 ± 3.61,*** %	53.86 ± 3.61,* %	36.05 ± 5.62,** %	133 ± 29,****	179 ± 17,****	85 ± 16,****	8.82 ± 1.89,*** %	16.47 ± 3.83,** %
N54: SEQ ID NO: 1 with A7R, addition of two amino acids and PEG modification at the carboxyl terminal (YRVRFLRKENVTQDAEDNTC-{PEG}; reading uncertain)	24.66 ± 6.13,** %	24.66 ± 5.13,*** %	16.62 ± 5.73,*** %	231 ± 26,****	345 ± 3,****	151 ± 28,****	6.91 ± 3.44,*** %	8.26 ± 3.47%
N19: SEQ ID NO: 1 with deletion of positions 1-5 and 15-18 and addition of two amino acids at the carboxyl terminal (LAKENVTQDRC)	42.04 ± 5.90,* %	16.80 ± 8.02,*** %	19.76 ± 7.14,*** %	213 ± 20,****	82 ± 6,****	348 ± 40,***	8.14 ± 2.21,*** %	25.59 ± 4.08,** %
N12: SEQ ID NO: 1 with deletion of position 18 and positions 1-2 (VRFLAKENVTQDAED)	28.72 ± 2.96,** %	13.18 ± 6.31,*** %	23.26 ± 6.90,** %	180 ± 17,****	405 ± 49,**	308 ± 42,***	11.53 ± 2.78,*** %	7.67 ± 3.29,*** %
N10: SEQ ID NO: 1 with deletion of positions 15-18 and 1-3 and PEG modification at the carboxyl terminal (RFLAKENVTQD-{PEG}; reading uncertain)	34.35 ± 5.74,** %	17.75 ± 5.87,*** %	32.80 ± 5.89,** %	159 ± 12,****	54 ± 5,****	460 ± 43,**	13.87 ± 3.48,*** %	14.14 ± 3.64,*** %
N50: SEQ ID NO: 1 with N18R, addition of 2 amino acid at the carboxyl terminal, PEG modification at the amino terminal ({PEG}-YRVRFLAKENVTQDAEDRCT; reading uncertain)	31.05 ± 4.32,** %	33.20 ± 3.59,** %	14.92 ± 8.62,*** %	310 ± 30,***	192 ± 16,****	243 ± 46,****	15.97 ± 2.93,** %	11.80 ± 4.15,*** %
